Test results as given in US5916576A, “Method of scavenging free radicals using orange extract” (Amway Corporation, priority 1997, dated 1999).

Experiment: DPPH free radical scavenging activity test (percent inhibition, absorbency at 516 nm)
Assay type: biochemical
Conditions: Table 1; 1% solutions, in the manner of Example 1 (DPPH, 30 minutes at 37° C, 516 nm)
Description: A control solution was prepared by measuring 39.43 mg of 2,2-diphenyl-1-picrylhydrazyl hydrate (DPPH), a known source of free radicals, and diluting it to 1000 ml with ethanol. A control cuvette was charged with 1.75 ml of the control and 1.75 ml of ethanol. A blank cuvette was charged with 3.5 ml of ethanol. The cuvettes were placed in an oven for 30 minutes at 37° C. The absorbency was measured at 516 nm using a UV/vis spectrophotometer by placing the blank cuvette into the reference slot and the control cuvette into the sample slot.
An orange extract was prepared according to the method described above. A test cuvette was charged with 1.75 ml of the control solution and 1.75 ml of a 1% solution of orange extract. A reference cuvette was charged with 1.75 ml of the orange extract and 1.75 ml of ethanol. The cuvettes were placed in an oven for 30 minutes at 37° C. The absorbency was measured in the manner described above with the test cuvette placed in the sample slot and the reference cuvette placed in the reference slot.
The free radical scavenging activity was calculated as a percentage of inhibition of the generation of the free radicals using the following formula:
Percent Inhibition=100×[1-(DT/DR)]
DT is the measured absorbance of the test cuvette with respect to the reference cuvette and DR is the measured absorbance of the control cuvette with respect to the blank cuvette. […]

SMILES: CC(=O)Oc1c(C)c(C)c2c(c1C)CCC(C)(CCC[C@H](C)CCC[C@H](C)CCCC(C)C)O2 (some centres unmarked) [Tocopheryl Acetate, tocopheryl acetate]
- % INHIBITION: 67%

SMILES: O=c1oc2cc(O)ccc2s1 [Tioxolone, tioxolone]
- % INHIBITION: 50%
